Legend:
NK1 receptor = molecular target: T1, NK1 receptor (Homo sapiens, UniProt P25103); experiment: Antagonism of NK1 receptor mediated (SP-induced) phosphatidylinositol turnover in UC11 cells; type: cell-based
T1 construct: endogenous in cells; host or cells: UC11 cells
Description: ANTAGONISM OF NK1 AND NK2 RECEPTOR MEDIATED PHOSPHATID[…]
Tachykinin-mediated inositol phosphate accumulation was measured in UC11 or SKLKB82#3 cells in the presence and absence of NK1 or NK2 receptor antagonists, respectively. Tissues were incubated in Krebs-Henseleit buffer at 37° C. with 95% O2 -5% CO2 gassing. Tissues were then incubated with fresh buffer containing 100 μCi of myo-[2-^3 H(N)] inositol at 37° C. for 60 min with gentle gassing. After washing twice in 5 ml room temperature buffer containing 10 mM LiCl, tissues were incubated for 30 min at room temperature with a buffer change at 15 min. Buffer was removed and Krebs-Henseleit buffer (containing 40 μg/ml bacitracin, 4 μg/ml each of leupeptin and chymostatin, 0.1% bovine serum albumin and 10 mM each of thiorphan and LiCl) added. After 15 min, SP was added to UC11 cells or NKA to SKLKB82#3 cells at various concentrations to start the reaction. After incubation for 60 min at room temperature the reaction was terminated by addition of 930 μl chloroform: methanol (1:2 by volume) to each tube, followed by 310 μl chloroform and 310 μl doubly distilled water. Samples were vortexed, centrifuged, and 0.9 ml of the aqueous (top) phase removed and added to 2 ml ddH2 O. The mixture was vortexed and loaded onto a 50% Bio-Rad AG 1-X8 (formate form, 100-200 mesh) exchange column (Bio-Rad Laboratories, Hercules, Calif.). The columns were washed, in order, with: 1) 10 ml doubly distilled water, 2) 5 ml of 5 mM disodium tetraborate/60 mM sodium formate, and 3) 5 ml of 1M ammonium formate/0.1M formic acid. The third elution was collected and 1 ml counted in 7 ml scintillation fluid. A 50 μl aliquot of the organic (bottom) phase was removed, dried in a scintillation vial and counted in 7 ml scintillation fluid.
The ratio of DPM in the aqueous phase aliquot (total inositol phosphates) to the DPM in the 50 μl organic phase aliquot (total [^3 H]inositol incorporated) was calculated for each sample. Data are expressed as a percent of agonist-induced accumulation of [^3 H]-inositol phosphates over basal levels. The ratios in the presence of test compound and/or standards were compared to the ratios for control samples (i.e. no stimulating agonist). Dose-response graphs were constructed and the abilities of the test compounds to inhibit tachykinin-induced phosphatidyinositol turnover determined with the aid of a computer program. […] Data is expressed as percent stimulation of total inositol phosphate accumulation over basal levels and normalized to the maximum response produced by SP. […] Schild analysis is performed using dose response curves (such as those presented in FIGS. 1a and 1b) to obtain a value indicative of the strength of a competitive antagonist and is expressed as the pA2, which is the negative logarithm of the molar concentration of antagonist which reduces the effect of a dose of agonist to one-half of that expected at the dose of agonist.

[1] = molecular target: T2, human jejunal NK2 receptor (Homo sapiens, UniProt P21452); experiment: Antagonism of iodinated tachykinin (125I-neurokinin A) binding to NK2 receptor in HSKR-1 cells
T2 construct: expressed in transfected cells; host or cells: HSKR-1 cells (mouse 3T3 fibroblasts)
T2 sequence (P21452 1-398): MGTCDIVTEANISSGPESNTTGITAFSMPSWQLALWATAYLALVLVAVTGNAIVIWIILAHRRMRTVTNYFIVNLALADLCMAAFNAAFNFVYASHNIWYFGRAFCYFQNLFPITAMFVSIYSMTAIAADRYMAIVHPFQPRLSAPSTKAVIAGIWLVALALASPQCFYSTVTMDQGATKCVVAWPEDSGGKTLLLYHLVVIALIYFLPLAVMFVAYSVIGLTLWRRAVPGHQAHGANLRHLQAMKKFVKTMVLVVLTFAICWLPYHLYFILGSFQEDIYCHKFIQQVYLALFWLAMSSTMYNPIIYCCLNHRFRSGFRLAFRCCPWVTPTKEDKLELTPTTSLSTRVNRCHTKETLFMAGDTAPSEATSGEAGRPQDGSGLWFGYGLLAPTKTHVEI
Description: ANTAGONISM OF IODINATED TACHYKININ BINDING TO NK1 AND NK2 RECEPTORS BY PUTATIVE ANTAGONISTS
The NK1 receptor affinity of proposed tachykinin antagonists was evaluated in guinea pig lungs (Keystone Biologicals, Cleveland, Ohio), affinity for the NK2 receptor evaluated in HSKR-1 cells (which are mouse 3T3 fibroblasts expressing the human jejunal NK2 receptor) and NK-3 receptor affinity was evaluated in freshly collected guinea pig cerebral cortex. Tissues or cells were homogenized with a Polytron in 15 volumes of 50 mM Tris-HCl buffer (pH 7.4, 4° C.) and centrifuged. The pellet was resuspended in Tris-HCl buffer and was centrifuged; the pellet was washed twice by resuspension. The final pellet was resuspended at a concentration of 40 mg/ml for tissues (guinea pig lung and cerebral cortex) and 20 mg/ml for cells in incubation buffer and remained at room temperature for at least 15 min prior to use. […] Filter bound radioactivity was quantitated in a gamma counter. […] Specific binding was calculated by subtracting nonspecific binding from total binding. Competition of iodinated SP, NKA, or eledoisin binding by test compounds or standards was expressed as a percentage of this maximum competition. […]

T1 sequence (P25103 whole entry): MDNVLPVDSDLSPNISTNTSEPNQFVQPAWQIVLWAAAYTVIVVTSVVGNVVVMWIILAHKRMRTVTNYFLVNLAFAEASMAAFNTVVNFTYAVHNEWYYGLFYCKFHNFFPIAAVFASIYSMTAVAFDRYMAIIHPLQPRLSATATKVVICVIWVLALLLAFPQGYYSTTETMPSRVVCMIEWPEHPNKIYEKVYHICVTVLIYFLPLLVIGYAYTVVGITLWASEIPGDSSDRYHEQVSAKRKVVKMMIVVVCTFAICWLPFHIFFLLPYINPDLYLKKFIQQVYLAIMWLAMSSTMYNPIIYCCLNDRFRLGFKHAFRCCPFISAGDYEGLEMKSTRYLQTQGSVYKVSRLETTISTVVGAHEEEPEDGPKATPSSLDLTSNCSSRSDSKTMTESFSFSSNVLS

COc1cc(C(=O)N2CCC(CCN3CCC(C(N)=O)(c4ccccc4)CC3)(c3ccc(Cl)c(Cl)c3)C2)cc(OC)c1OC (stereo not drawn) [Example 3, 1-[2-[3-(3,4-dichloro-phenyl)-1-(3,4,5-trimethoxy-benzoyl)-pyrrolidin-3-yl]-ethyl]-4-phenyl-piperidine-4-carboxylic acid amide]
antagonism of SP induced PI turnover (in words, FIG. 1a) (NK1 receptor; UC11 cells): dose related antagonism | agonist activity, PI turnover in UC11 cells (in words) (NK1 receptor; compound alone): no agonist activity | affinity for NK2 receptors (in words) [1]: high affinity

Reference: US5648366A, “Substituted pyrrolidin-3-yl-alkyl-piperidines” (Merrell Pharmaceuticals Inc., priority 1995, dated 1997)
